Values belong to the compound of their own block, whether it stands above or below them.
What was measured:
[1] = Surfactant combinations giving clear aqueous dispersions (maximum hydrophobic surfactant, visual optical clarity); conditions: for approximate maximum grams of hydrophobic surfactant per 100 g of hydrophilic surfactant giving acceptable optical clarity: 10× aqueous dispersion, no solubilizer
[2] = value reported by the manufacturer of the commercial product, a rough average, or inventors' judgment; cited from earlier work
[3] = hydrophilic surfactant Cremophor RH40 + 20% Ethanol
[4] = hydrophilic surfactant Cremophor RH40 + 20% Glycofurol
[5] = hydrophilic surfactant Cremophor RH40 + 20% Triacetin
[6] = hydrophilic surfactant Cremophor RH40, solubilizer (None), reproduced from Table 19
[7] = hydrophilic surfactant PEG-8 Capric/Caprylic (Labrasol)
[8] = hydrophilic surfactant PEG-25 Glyceryl trioleate (Tagat TO)
[9] = hydrophilic surfactant PEG-35 Castor Oil (Incrocas 35)
[10] = hydrophilic surfactant PEG-40H Castor Oil (Cremophor RH-40)
[11] = hydrophilic surfactant PEG-60 Corn Oil (Crovol M-70)
[12] = hydrophilic surfactant Polysorbate 80 (Tween 80)
[13] = hydrophilic surfactant Polysorbate-20 (Tween 20)

Compound: CCCCCCCC/C=C\CCCCCCCC(=O)OCC [Ethyl oleate]
- effect of added solubilizer on the relative amount of hydrophobic surfactant that can be used ([1]; Cremophor RH 40 hydrophilic surfactant, 20% solubilizer): negligible
- approximate maximum grams of hydrophobic surfactant per 100 g of hydrophilic surfactant giving a clear aqueous dispersion [1, 3]: 60 g per 100 g of hydrophilic sur
- approximate maximum grams of hydrophobic surfactant per 100 g of hydrophilic surfactant giving a clear aqueous dispersion [1, 4]: 60 g per 100 g of hydrophilic sur
- approximate maximum grams of hydrophobic surfactant per 100 g of hydrophilic surfactant giving a clear aqueous dispersion [1, 5]: 60 g per 100 g of hydrophilic sur
- approximate maximum grams of hydrophobic surfactant per 100 g of hydrophilic surfactant giving a clear aqueous dispersion [1, 6]: 60 g per 100 g of hydrophilic sur
- approximate maximum grams of hydrophobic surfactant per 100 g of hydrophilic surfactant giving acceptable optical clarity [1, 7]: 10 g per 100 g of hydrophilic sur
- approximate maximum grams of hydrophobic surfactant per 100 g of hydrophilic surfactant giving acceptable optical clarity [1, 8]: 10 g per 100 g of hydrophilic sur
- approximate maximum grams of hydrophobic surfactant per 100 g of hydrophilic surfactant giving acceptable optical clarity [1, 9]: 40 g per 100 g of hydrophilic sur
- approximate maximum grams of hydrophobic surfactant per 100 g of hydrophilic surfactant giving acceptable optical clarity [1, 10]: 60 g per 100 g of hydrophilic sur
- approximate maximum grams of hydrophobic surfactant per 100 g of hydrophilic surfactant giving acceptable optical clarity [1, 11]: 60 g per 100 g of hydrophilic sur
- approximate maximum grams of hydrophobic surfactant per 100 g of hydrophilic surfactant giving acceptable optical clarity [1, 12]: 10 g per 100 g of hydrophilic sur
- approximate maximum grams of hydrophobic surfactant per 100 g of hydrophilic surfactant giving acceptable optical clarity [1, 13]: 10 g per 100 g of hydrophilic sur
- HLB [2]: <10

Compound: CCCCCCCC(=O)OCC(C)OC(=O)CCCCCCC (centres unmarked) [Propylene glycol dicaprylate]
- HLB [2]: >6

Compound: CCCCCCCCCCCC(=O)OCC(C)OC(=O)CCCCCCCCCCC (centres unmarked) [Propylene glycol dilaurate]
- HLB [2]: >6

Compound: CCCCCCCC(=O)OCC(C)OC(=O)CCCCCCC (centres unmarked) [Propylene glycol dioctanoate]
- HLB [2]: <6

Compound: CCCCCCCCCCCCCCCCCC(=O)OCC(C)OC(=O)CCCCCCCCCCCCCCCCC (centres unmarked) [Propylene glycol distearate]
- HLB [2]: >6

Compound: CCCCCCCCCCCCOS(=O)(=O)[O-].[Na+] [Sodium lauryl sulfate, Sodium lauryl sulfate (dodecyl)]
- HLB [2]: 40

Compound: CCCCCCCC/C=C\CCCCCCCC(=O)[O-].[Na+] [Sodium oleate]
- HLB [2]: 18

Compound: CC[C@H](CC[C@@H](C)[C@H]1CC[C@H]2[C@@H]3CC=C4C[C@@H](O)CC[C@]4(C)[C@H]3CC[C@]12C)C(C)C [sitosterol]
- HLB [2]: <10

Compound: PEG 400-100O monostearate
- HLB [2]: >10

Compound: PEG-5 soya sterol
- HLB [2]: <10

Compound: PEG-10 soya sterol
- HLB [2]: <10

Compound: PEG-20 soya sterol
- HLB [2]: <10

Compound: PEG-24 cholesterol ether
- HLB [2]: >10

Compound: PEG-25 phyto sterol
- HLB [2]: >10

Compound: PEG-30 cholestanol
- HLB [2]: >10

Compound: PEG-30 soya sterol
- HLB [2]: >10

Compound: Phytosterol
- HLB [2]: <10

Compound: Polyglyceryl polyricinoleate
- HLB [2]: 3-20

Compound: Propylene glycol dicaprylate/dicaprate
- HLB [2]: <6

- approximate maximum grams of hydrophobic surfactant per 100 g of hydrophilic surfactant giving a clear aqueous dispersion [1, 3]: 80 g per 100 g of hydrophilic sur
- approximate maximum grams of hydrophobic surfactant per 100 g of hydrophilic surfactant giving a clear aqueous dispersion [1, 4]: 80 g per 100 g of hydrophilic sur
- approximate maximum grams of hydrophobic surfactant per 100 g of hydrophilic surfactant giving a clear aqueous dispersion ([1]; hydrophilic surfactant Cremophor RH40 + 20% PEG-400): 80 g per 100 g of hydrophilic sur
- approximate maximum grams of hydrophobic surfactant per 100 g of hydrophilic surfactant giving a clear aqueous dispersion [1, 5]: 80 g per 100 g of hydrophilic sur
- approximate maximum grams of hydrophobic surfactant per 100 g of hydrophilic surfactant giving a clear aqueous dispersion [1, 6]: 80 g per 100 g of hydrophilic sur
- approximate maximum grams of hydrophobic surfactant per 100 g of hydrophilic surfactant giving acceptable optical clarity [1, 7]: 10 g per 100 g of hydrophilic sur
- approximate maximum grams of hydrophobic surfactant per 100 g of hydrophilic surfactant giving acceptable optical clarity [1, 8]: 10 g per 100 g of hydrophilic sur
- approximate maximum grams of hydrophobic surfactant per 100 g of hydrophilic surfactant giving acceptable optical clarity [1, 9]: 80 g per 100 g of hydrophilic sur
- approximate maximum grams of hydrophobic surfactant per 100 g of hydrophilic surfactant giving acceptable optical clarity [1, 10]: 80 g per 100 g of hydrophilic sur
- approximate maximum grams of hydrophobic surfactant per 100 g of hydrophilic surfactant giving acceptable optical clarity [1, 11]: 10 g per 100 g of hydrophilic sur
- approximate maximum grams of hydrophobic surfactant per 100 g of hydrophilic surfactant giving acceptable optical clarity [1, 12]: 15 g per 100 g of hydrophilic sur
- approximate maximum grams of hydrophobic surfactant per 100 g of hydrophilic surfactant giving acceptable optical clarity [1, 13]: 20 g per 100 g of hydrophilic sur
Compound: mono- and diacetylated monoglycerides [Mono- and monoglycerides]
- HLB [2]: 3.8-4

— patent publication US6451339B2, “Compositions and methods for improved delivery of hydrophobic agents” (Lipocine, Inc., priority 1999, dated 2002)
